# Measured values as given in the NIST ThermoML archive (doi:10.1021/acs.jced.7b00377).
# Numbers after ± are expanded uncertainties.
# Columns and labels:
# [1] = refractive index (Na D-line) (dimensionless); conditions: 298.15 K; 101.33 kPa; Liquid; Standard Abbe refractometry
# [2] = Liquid; for mass density: 101.33 kPa, Pycnometric method; for vapor or sublimation pressure: Ebulliometric method (Recirculating still)
structure (smiles),measurement,setting,value
CC(C)CO [2-methyl-1-propanol],refractive index,[1],1.3939 ± 0.0004
same,mass density,[2]; 293.15 K,801.8 ± 0.6 kg/m3
same,vapor or sublimation pressure,[2]; 381.08 K,101.33 ± 0.7 kPa
CCOCOCC(C)C [1-(ethoxymethoxy)-2-methylpropane],refractive index,[1],1.3873 ± 0.0004
same,mass density,[2]; 298.15 K,823.8 ± 0.6 kg/m3
same,vapor or sublimation pressure,[2]; 320.54 K,5 ± 0.05 kPa
same,vapor or sublimation pressure,[2]; 335.1 K,10 ± 0.06 kPa
same,vapor or sublimation pressure,[2]; 344.53 K,15 ± 0.09 kPa
same,vapor or sublimation pressure,[2]; 351.76 K,20.02 ± 0.12 kPa
same,vapor or sublimation pressure,[2]; 359.38 K,26.67 ± 0.17 kPa
same,vapor or sublimation pressure,[2]; 370.93 K,39.9 ± 0.23 kPa
same,vapor or sublimation pressure,[2]; 379.83 K,53.33 ± 0.3 kPa
same,vapor or sublimation pressure,[2]; 386.16 K,64.8 ± 0.37 kPa
same,vapor or sublimation pressure,[2]; 393.18 K,79.6 ± 0.44 kPa
same,vapor or sublimation pressure,[2]; 397.46 K,89.9 ± 0.5 kPa
same,vapor or sublimation pressure,[2]; 401.87 K,101.33 ± 0.55 kPa
same,vapor or sublimation pressure,[2]; 405.77 K,112 ± 0.61 kPa
same,vapor or sublimation pressure,[2]; 410.02 K,125 ± 0.67 kPa
CCCCO [butan-1-ol],refractive index,[1],1.3971 ± 0.0004
same,mass density,[2]; 298.15 K,809.5 ± 0.6 kg/m3
same,vapor or sublimation pressure,[2]; 390.9 K,101.33 ± 0.7 kPa
